Assay results as given in ChEMBL document CHEMBL1151284, “Antimycobacterial scalarane-based sesterterpenes from the Red Sea sponge Hyrtios erecta” (2005).

system: Mycobacterium tuberculosis; assay: Antimycobacterial activity against Mycobacterium tuberculosis H37Rv ATCC 27294 at 6.25 uM by microplate alamar blue assay; format: functional

Row | SMILES | inhibition at 6.25 µM [%]
1 | CC1(C)CCC[C@]2(C)[C@H]3C[C@@H](O)[C@]4(C)[C@H]5COC(=O)C5=CC[C@H]4[C@]3(C)CC[C@@H]12 | 16
2 | CC(=O)O[C@H]1C[C@H]2[C@]3(C)CC[C@H]4C(C)(C)CCC[C@]4(C)[C@H]3C[C@@H](O)[C@]2(C)[C@H]2OC(=O)C=C12 | 40
3 | CC(=O)O[C@H]1CC[C@]2(C)[C@H]3C[C@@H](O)[C@]4(C)C5=C(CC[C@H]4[C@]3(C)CC[C@H]2C1(C)C)COC5=O | 13
4 | CC(=O)O[C@H]1C[C@H]2[C@]3(C)CC[C@H]4C(C)(C)CCC[C@]4(C)[C@H]3C[C@@H](O)[C@]2(C)C2=C1COC2=O [SESTERSTATIN 7] | 63
